Measured values: patent publication US10195178B2, “GPR40 agonists in anti-diabetic drug combinations” (Janssen Pharmaceutica NV, priority 2016, dated 2019)
Where “and” joins values, the source holds several entries; their conditions need not be identical. Equal entries are not always repeated. Each block holds one compound with its values, some of them ahead of it.

Experiments:
[1] = test system: SD rats; assay: Oral Glucose Tolerance Test: Canagliflozin Combination with GPR40 Agonist; assay type: in vivo; details: SD rat OGTT; for Blood glucose 0 min / Blood glucose 30 min / Blood glucose 60 min / Blood glucose 120 min / Blood glucose AUC / Blood glucose AUC % of Vehicle: single oral dose 60 min before glucose 2 g/kg; for Blood glucose AUC / Blood glucose AUC % of Vehicle: AUC 0-120 min
Method: We have evaluated the blood glucose (BG) lowering effect of canagliflozin (Cana) combined with a GPR40 agonist Cpd 2 in SD rat studies. Overnight fasted SD rats received either a single treatment of Cana or Cpd 2 or a combination of both. An oral glucose tolerance test (OGTT) was followed at 60 min post compound administration. […] The two-sided Z Test and Delta method were applied to statistically determine the treatment additivity of combinations using blood glucose AUC values. Results indicated the treatments were additive in the combinations of Canagliflozin at 1 or 3 mg/kg and Cpd 2 at 0.3 or 1 mg/kg.
• A. The formulation of Canagliflozin was prepared by directly adding the required amount of 0.5% HPMC to the compound and stirring overnight. • B. The formulation of Cpd 2 was prepared following steps listed below: • a. One equivalent (amount of compound/compound MW) of 1N NaOH was added to dry compound to enhance water solubility (due to compound itself is a carboxylic acid). • b. The required volume of 0.5% HPMC was then added; • c. The compound was vortexed and sonicated (without heat) for a minimum of 10 minutes. • d. The compound was then allowed to stir overnight. • C. For the formulation of combination of Canagliflozin (Cana) and Cpd 2: • a. First, a formulation of double concentrations of each compound was prepared.
• b. Right before dosing, the double-concentrated formulation of Cpd 2 was mixed with an equal volume of the double-concentrated formulation of Canagliflozin, such that each compound was as 1× concentration. • D. The dosing volume for all the experiments was 10 mL/kg Experimental Design
Male SD rats (225-245 g of body weight, purchased from Charles River) were used in this study. SD rats were housed 2 per cage in a temperature-controlled room with 12-hour light/dark cycle (6 am-6 pm lights on). They are allowed ad libitum access to water and fed with Purina 5K75 (LabDiet, St. Louis, Mo.).
SD rats were fasted overnight. In the morning of the next day, these rats were grouped into the following 12 groups based on their fasted blood glucose levels determined by a glucometer (LifeScan, New Brunswick, N.J.) and body weight.
At −60 minutes BG values were collected via tail bleeding. Next, rats were dosed orally with vehicle or compounds in vehicle. Then, at 0 minutes, rats were bled via tail vein to determine BG levels and dosed orally with glucose (2 g/kg; 50% glucose, 4 mL/kg). Blood samples were collected at 30, 60, and 120 minutes after oral glucose administration for BG determination.
Statistical analysis were performed using the program Prism (Graphpad, Monrovia, Calif.) with either a repeated measures 1-way ANOVA (glucose and insulin curves with Tukey's post-test) or a one-way ANOVA and Tukey's multiple comparison test (AUC, delta AUC and percent vehicle). All data are presented as the mean±standard error of the mean (SEM).
The two-sided Z Test and Delta method was applied to statistically determine the treatment additivity of combinations.

[2] = target: human GPR40 (Homo sapiens (Human), UniProt O14842); assay: GPR40 Calcium Flux Assay; assay type: cell-based; details: transfected HEK293 cells stably expressing human GPR40; mean data; read-out: hGPR40 Ca2+ Assay EC50
human GPR40, sequence (O14842 whole entry): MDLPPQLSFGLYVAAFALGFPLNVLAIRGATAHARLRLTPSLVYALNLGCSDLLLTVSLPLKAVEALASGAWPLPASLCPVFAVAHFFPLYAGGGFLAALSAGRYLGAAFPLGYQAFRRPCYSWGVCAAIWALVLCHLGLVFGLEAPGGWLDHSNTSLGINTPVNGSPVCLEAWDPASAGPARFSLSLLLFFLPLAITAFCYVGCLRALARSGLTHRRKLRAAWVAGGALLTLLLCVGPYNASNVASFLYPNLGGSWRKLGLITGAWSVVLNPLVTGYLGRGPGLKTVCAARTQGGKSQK
Method: Compounds were tested in a calcium flux assay using transfected HEK293 cells stably expressing either human GPR40 or rat GPR40. Human GPR40 expressing cells were cultured in DMEM-High Glucose media supplemented with 10% fetal bovine serum, 1×L-Glutamine, 1×Penicillin/Streptomycin and 500 μg/mL G418. Rat GPR40 expressing cells were cultured in DMEM-High Glucose media supplemented with 10% fetal bovine serum and 1 μg/mL puromycin. Cells were plated into poly-D-lysine coated 384-well plates and cultured overnight in a 37° C. humidified tissue culture incubator under 5% CO2/[…] atmosphere. On the day of the experiment, the culture media was replaced with assay buffer (HBSS, 20 mM HEPES, 0.1% BSA) and the cells incubated at 37° C. for 1 h. Calcium-sensitive fluorescent dye (Fluo 8 No-Wash Calcium Dye, ABD Bioquest) was then added and the cells incubated for another 30 min at 37° C. followed by 15 min at room temperature while protected from the light. The cell plate and a plate of diluted compounds of Formula (I) were loaded into a fluorescent plate reader that added compounds onto the cells while measuring the fluorescence intensity of each well. The plate reader recorded fluorescence intensity at 1 second intervals for 8 min and provided the data for analysis in an Excel format. EC50 values were calculated using Prism (GraphPad) software.

Structure (SMILES): Cc1ccc([C@@H]2O[C@H](CO)[C@@H](O)[C@H](O)[C@H]2O)cc1Cc1ccc(-c2ccc(F)cc2)s1 [Cana, canagliflozin]
Blood glucose lowering during OGTT (in words) ([1]; 10 mg/kg): markedly lowering blood glucose
Blood glucose 0 min ([1]; 1 mpk): 76.9 ± 2.3 mg/dL
Blood glucose 30 min ([1]; 1 mpk): 162.8 ± 6.5 mg/dL
Blood glucose 60 min ([1]; 1 mpk): 177.8 ± 4.0 mg/dL
Blood glucose 120 min ([1]; 1 mpk): 135.5 ± 8.2 mg/dL
Blood glucose AUC ([1]; 1 mpk): 18,099 ± 551 mg/dL/120 min
Blood glucose AUC % of Vehicle ([1]; 1 mpk): 95.4 ± 2.9%
Blood glucose 0 min ([1]; 3 mpk): 85.1 ± 3.0 mg/dL
Blood glucose 30 min ([1]; 3 mpk): 140.5 ± 5.1 mg/dL
Blood glucose 60 min ([1]; 3 mpk): 156.4 ± 4.0 mg/dL
Blood glucose 120 min ([1]; 3 mpk): 125.1 ± 9.7 mg/dL
Blood glucose AUC ([1]; 3 mpk): 16,204 ± 412 mg/dL/120 min
Blood glucose AUC % of Vehicle ([1]; 3 mpk): 85.4 ± 2.2%
Blood glucose 0 min ([1]; 10 mpk): 73.6 ± 4.4 mg/dL
Blood glucose 30 min ([1]; 10 mpk): 91.9 ± 6.4 mg/dL
Blood glucose 60 min ([1]; 10 mpk): 103.5 ± 5.4 mg/dL
Blood glucose 120 min ([1]; 10 mpk): 95.1 ± 3.7 mg/dL
Blood glucose AUC ([1]; 10 mpk): 11,400 ± 459 mg/dL/120 min
Blood glucose AUC % of Vehicle ([1]; 10 mpk): 60.1 ± 2.4%

Structure (SMILES): CC#C[C@@H](CC(=O)O)c1ccc(OCc2ccc3scc(-c4ccccc4C)c3c2)cc1 [Cpd 2, (3S)-3-[4-[[3-(2-Methylphenyl)benzo[b]thiophen-5-yl]methoxy]phenyl]hex-4-ynoic acid]
Blood glucose 0 min ([1]; 0.3 mpk): 86.1 ± 4.2 mg/dL
Blood glucose 30 min ([1]; 0.3 mpk): 149.0 ± 4.3 mg/dL
Blood glucose 60 min ([1]; 0.3 mpk): 153.1 ± 4.2 mg/dL
Blood glucose 120 min ([1]; 0.3 mpk): 103.3 ± 4.0 mg/dL
Blood glucose AUC ([1]; 0.3 mpk): 15,750 ± 244 mg/dL/120 min
Blood glucose AUC % of Vehicle ([1]; 0.3 mpk): 83.0 ± 1.3%
Blood glucose 0 min ([1]; 1 mpk): 76.1 ± 5.0 mg/dL
Blood glucose 30 min ([1]; 1 mpk): 132.3 ± 6.4 mg/dL
Blood glucose 60 min ([1]; 1 mpk): 139.6 ± 7.3 mg/dL
Blood glucose 120 min ([1]; 1 mpk): 102.4 ± 4.8 mg/dL
Blood glucose AUC ([1]; 1 mpk): 14,464 ± 554 mg/dL/120 min
Blood glucose AUC % of Vehicle ([1]; 1 mpk): 76.2 ± 2.9%

Structure (SMILES): Cc1ccccc1-c1csc2ccc(COc3ccc([C@]4(CC(=O)O)C[C@@H](O)C4)cc3)cc12 [Cpd 31, 2-((1r,3r)-3-Hydroxy-1-(4-((3-(2-methylphenyl)benzo[b]thiophen-5-yl)methoxy)phenyl)cyclobutyl)acetic acid]
EC50 [2]: 48 nM

EC50 [2]: 16 nM and 6 nM and 5 nM
Structure (SMILES): CC#C[C@@H](CC(=O)O)c1ccc(OCc2ccc3scc(-c4ccc(OCCOC)cc4C)c3c2)nc1 [Cpd 77, (3R)-3-(6-((3-(4-(2-Methoxyethoxy)-2-methylphenyl)benzo[b]thiophen-5-yl)methoxy)pyridin-3-yl)hex-4-ynoic acid]

Structure (SMILES): CC#CC(CC(=O)O)c1ccc(OCc2ccc3scc(-c4ccccc4C)c3c2)cc1 (stereo not shown) [Cpd 97, 3-(4-((3-(2-Methylphenyl)benzo[b]thiophen-5-yl)methoxy)phenyl)hex-4-ynoic acid]
EC50 [2]: 4 nM
